Measured values: patent publication US8598118B2, “Hepatocyte growth factor mimics as therapeutic agents” (Washington State University, priority 2011, dated 2013)
Several values for one entry are separate records, joined by “and”; a condition that tells them apart may be missing. Identical values can stand only once.

Key:
hippocampal neurons [1] = assay: Spinogenesis in mRFP-β-actin transfected dissociated hippocampal neurons; assay type: cell-based, rat; details: 5 days
Method: (§1) Hippocampal neurons (2×10^5 cells per square cm) were cultured from P1 Sprague Dawley rats on plates coated with poly-L-lysine from Sigma (St. Louis, Mo.; molecular weight 300,000). Hippocampal neurons were maintained in Neurobasal A media from Invitrogen (Carlsbad, Calif.) supplemented with B27 from Invitrogen, 0.5 mM L-glutamine, and […] cytosine-D-arabinofuranoside from Sigma added at 2 days in vitro. Hippocampal neurons were then cultured a further 3-7 days, at which time they were either transfected or treated with various pharmacological reagents as described in (Wayman, Davare et al. 2008).
Neurons were transfected with mRFP-β-actin on day in vitro 6 (DIV6) using LipofectAMINE™ 2000 (Invitrogen) according to the manufacturer's protocol. This protocol yielded the desired 3-5% transfection efficiency thus enabling the visualization of individual neurons. Higher efficiencies obscured the dendritic arbor of individual neurons. Expression of fluorescently tagged actin allowed clear visualization of dendritic spines, as dendritic spines are enriched in actin. On DIV7 the cells were treated with vehicle (H20) or peptides (as described in the text) added to media. On DIV 12 the neurons were fixed (4% paraformaldehyde, 3% sucrose, 60 mM PIPES, 25 mM HEPES, 5 mM EGTA, 1 mM MgCl2, pH 7.4) for 20 min at room temperature and mounted. Slides were dried for at least 20 hours at 4° C. and fluorescent images were obtained with Slidebook 4.2 Digital Microscopy Software driving an Olympus IX81 inverted confocal microscope with a 60× oil immersion lens, NA 1.4 and resolution 0.280 μm Dendritic spine density was measured on primary and secondary dendrites at a distance of at least 150 μm from the soma. Five 50 μm long segments of dendrite from at least 10 neurons per data point were analyzed for each data point reported. Each experiment was repeated at least three times using independent culture preparations. Dendrite length was determined using the National Institutes of Health's Image J 1.41o program (NIH, Bethesda, Md.) and the neurite tracing program Neuron J (Meijering, Jacob et al. 2004) Spines were manually counted.
as §1, with “centimeter)” for “cm)”, “P1-2” for “P1”, “the text or figure legends.” for “(Wayman, Davare et al. 2008).”

hippocampal neurons [2] = assay: Immunocytochemistry: percent correlation of spines to synaptic markers (VGLUT1, Synapsin, PSD-95); assay type: cell-based, rat; details: HGF 10 ng/ml, 5 days
Method: Transfected neurons were treated, fixed and stained. Briefly, cells were permeablized with 0.1% Triton X-100 detergent (Bio-Rad; Hercules, Calif.) for 10 minutes. An 8% bovine serum albumin (Intergen Company; Burlington, Mass.) in PBS was used to prevent non-specific binding for one hour at R.T.; Primary antibody incubations were at a 1:2500 dilution (see below) in 1% BSA in PBS at 4° C. overnight. Secondary antibody, 1:3000 Alexafluor 488 goat-anti-mouse (Invitrogen: Carlsbad, Calif.) was applied for two hours at room temperature. Coverslips were mounted with ProLong Gold anti-fade reagent (Invitrogen; Carlsbad, Calif.) and all washes were done with PBS. Imaging and analysis were performed as described above. […] In each instance the total number of spines was counted for the treatment groups, control, Nle1-AngIV and Dihexa, to ensure an active phenotype. The total number of actin enriched spines adjacent to VGLUT1 or Synapsin were counted and converted to a percentage as the percent correlation of treatment-induced spines to presynaptic markers is a strong indicator of ability to transmit excitatory signals.
Transfected neurons were treated, fixed and stained as previously described in Chapter two. […] In each instance the total number of spines was counted for the treatment groups, control, Nle1-AngIV and Dihexa, to ensure an active phenotype. […]

Substance: HGF: carrier free adult recombinant Hepatocyte Growth Factor (R and D Systems)
- mean spine numbers (hippocampal neurons [1]; HGF 2.5 ng/ml): 18.6 and 16.5
- mean spine numbers (hippocampal neurons [1]; HGF 5 ng/ml): 24.7
- mean spine numbers per 50 μm dendrite length (hippocampal neurons [1]; HGF 10 ng/ml): 27.5 and 33 and 29.3
- mean spine numbers (hippocampal neurons [1]; HGF 20 ng/ml): 27.0
- percent correlation of spines to Synapsin (hippocampal neurons [2]): 98%
